Each compound was assayed against T1, recombinant IL4I1 (Homo sapiens, UniProt Q96RQ9) (assay: IL4I1 Enzymatic Assay (Amplex Red/HRP coupled H2O2 detection)). Conditions: 240 min; four-hour pre-incubation with compound; 1 nM IL4I1, 1 mM each Phe/Tyr/Trp; ten-point titration; fluorescence readout; read-out: Potency EC50 (nM) (240 min).
T1 construct: purchased R&D Systems 5684-AO-020
T1 sequence (Q96RQ9 22-567): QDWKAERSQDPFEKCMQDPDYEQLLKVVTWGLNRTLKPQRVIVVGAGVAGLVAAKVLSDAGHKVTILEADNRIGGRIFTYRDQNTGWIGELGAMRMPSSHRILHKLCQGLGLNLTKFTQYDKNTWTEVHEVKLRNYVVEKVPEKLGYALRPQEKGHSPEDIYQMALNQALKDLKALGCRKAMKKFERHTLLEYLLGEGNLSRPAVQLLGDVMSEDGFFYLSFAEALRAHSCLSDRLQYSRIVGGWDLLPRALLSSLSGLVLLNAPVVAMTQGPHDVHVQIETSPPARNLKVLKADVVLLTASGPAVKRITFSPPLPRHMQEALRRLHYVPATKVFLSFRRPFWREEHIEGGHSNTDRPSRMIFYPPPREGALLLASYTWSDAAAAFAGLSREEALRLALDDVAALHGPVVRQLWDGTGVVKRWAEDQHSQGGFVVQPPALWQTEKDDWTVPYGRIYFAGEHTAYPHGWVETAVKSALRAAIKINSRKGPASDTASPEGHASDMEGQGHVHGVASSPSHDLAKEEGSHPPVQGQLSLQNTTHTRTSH
Assay type: biochemical
How it was run: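 Recombinant IL4I1 at 1 nM final, pre-incubated 4 h with compound (0.1% DMSO) at ambient temperature in 50 mM Hepes pH 7.0, 0.005% Tween20; 1 mM each Phe/Tyr/Trp, 120 min, H2O2 read via Amplex Red/HRP fluorescence (544/590 nm). EC50 from ten-point four-parameter fit.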

Going from `CC(=O)NC(C)(C)c1ccc(Cn2c(=O)[nH]c3ccccc32)cc1` [Example 51, N-(2-{4-[(2-oxo-2,3-dihydro-1H-benzimidazol-1-yl)methyl]phenyl}propan-2-yl)acetamide] to `CC[C@@H](NC(C)=O)c1ccc(Cn2c(=O)[nH]c3ccccc32)cc1` [Example 16, (R)-N-(1-(4-((2-oxo-2,3-dihydro-1H-benzo[d]imidazol-1-yl)methyl)phenyl)propyl)acetamide], the EC50 falls from 54 nM to 24 nM (2.2-fold). The second is the more potent here.

Compared with `CNC(=O)c1cc(Cn2c(=O)[nH]c3ccccc32)ccc1OC` [Example 17, 2-methoxy-N-methyl-5-((2-oxo-2,3-dihydro-1H-benzo[d]imidazol-1-yl)methyl)benzamide], `CC(C)Oc1cccc(Cn2c(=O)[nH]c3ccccc32)c1` [Example 71, 1-(3-isopropoxybenzyl)-1,3-dihydro-2H-benzo[d]imidazol-2-one] is 3.8-fold higher in EC50: 12 nM for the first, 45 nM for the second.

First: CC(C1CCCCC1)n1c(=O)[nH]c2ccccc21 (centres unmarked) [Example 88, 1-(1-cyclohexylethyl)-1,3-dihydro-2H-benzo[d]imidazol-2-one]
Second: O=c1[nH]c2ccccc2n1CC1CCN(c2ccccn2)CC1 [Example 115, 1-((1-(pyridin-2-yl)piperidin-4-yl)methyl)-1,3-dihydro-2H-benzo[d]imidazol-2-one]
The EC50 of the first is 7.7-fold higher: 10000 nM for the first, 1300 nM for the second.

First: Cc1cc(C)cc(Cn2c(=O)[nH]c3ccccc32)c1 [Example 72, 1-[(3,5-dimethylphenyl)methyl]-1,3-dihydro-2H-benzimidazol-2-one]
Second: CC1NC(=O)c2cc(Cn3c(=O)[nH]c4ccccc43)ccc21 (centres unmarked) [Example 33, 1-[(1-methyl-3-oxo-2,3-dihydro-1H-isoindol-5-yl)methyl]-1,3-dihydro-2H-benzimidazol-2-one]
The EC50 of the first is 2.5-fold lower: 6 nM for the first, 15 nM for the second.

Compared with `COc1cccc(Cn2c(=O)n(C)c3cc(Cl)ccc32)c1` [Example 90, 5-chloro-1-(3-methoxybenzyl)-3-methyl-1,3-dihydro-2H-benzo[d]imidazol-2-one], `Cn1c(=O)n(Cc2cccc(OC(F)(F)F)c2)c2ccccc21` [Example 89, 1-methyl-3-(3-(trifluoromethoxy)benzyl)-1,3-dihydro-2H-benzo[d]imidazol-2-one] is 7.8-fold lower in EC50: 227 nM for the first, 29 nM for the second. The second is the more potent here.

First: O=c1[nH]c2c(N3CCCC3)cccc2n1Cc1ccccc1 [Example 93, 1-benzyl-4-(pyrrolidin-1-yl)-1,3-dihydro-2H-benzo[d]imidazol-2-one]
Second: CN(C)C(=O)Cc1cccc(Cn2c(=O)[nH]c3ccccc32)c1 [Example 105, N,N-dimethyl-2-(3-((2-oxo-2,3-dihydro-1H-benzo[d]imidazol-1-yl)methyl)phenyl)acetamide]
The EC50 of the first is 130-fold higher: 1340 nM for the first, 10 nM for the second.

`CN(C)C(=O)Cc1ccc(Cn2c(=O)[nH]c3ccc(F)cc32)cc1` [Example 66, 2-(4-((6-fluoro-2-oxo-2,3-dihydro-1H-benzo[d]imidazol-1-yl)methyl)phenyl)-N,N-dimethylacetamide] and `C[C@H]1COC(=O)N1Cc1ccc(Cn2c(=O)[nH]c3ccccc32)cc1` [Example 83, (S)-4-methyl-3-(4-((2-oxo-2,3-dihydro-1H-benzo[d]imidazol-1-yl)methyl)benzyl) oxazolidin-2-one] are within 1.5-fold of each other in EC50: 16 nM for the first, 13 nM for the second.

`N#Cc1cc(Cn2c(=O)[nH]c3ccccc32)ccc1CN1CCCC1=O` [Example 24, 5-((2-oxo-2,3-dihydro-1H-benzo[d]imidazol-1-yl)methyl)-2-((2-oxopyrrolidin-1-yl)methyl) benzonitrile] and `O=c1[nH]c2ccccc2n1Cc1ccc2c(c1)S(=O)(=O)CC2` [Example 28, 1-((1,1-dioxido-2,3-dihydrobenzo[b]thiophen-6-yl)methyl)-1,3-dihydro-2H-benzo[d]imidazol-2-one] are within 1.5-fold of each other in EC50: 24 nM for the first, 33 nM for the second.

`O=c1[nH]c2ccccc2n1Cc1ccc(Cn2nncc2CO)cc1` (single isomer, unassigned) [Example 81, 1-(4-((5-(hydroxymethyl)-1H-1,2,3-triazol-1-yl)methyl)benzyl)-1,3-dihydro-2H-benzo[d]imidazol-2-one] gave an EC50 of 10 nM.

Source: patent publication US12454525B2, “IL4I1 inhibitors and methods of use” (Merck Sharp & Dohme LLC, priority 2020, dated 2025)
